This note sets out measurements from patent US20040220089A1, “Ophthalmic preparation containing glycoprotein” (priority 2001, published 2004).

In this series the test system is Madin-Darby Canine Kidney (MDCK) cells. Nature of the series: in vitro transepithelial permeability assay (fluorescein, Tchao) for eye irritation potential. The note with it: MDCK monolayer, 30 minutes at 37° C., Na-fluorescein permeability; SDS=100% response; less than 20% considered non-irritating.

Source text: The Tchao technique is described as a method of determining potential eye irritation of a substance by correlating damage to a mono-layer of Madin-Darby Canine Kidney (MDCK) cells with damage to corneal epithelial cells. The amount of fluorescein passing through the cell mono-layer is a function of permeability of the cell mono-layer. Higher cell mono-layer permeability indicates greater damage to the cell junctions from application of a test solution thereto, whereas lower cell mono-layer permeability indicates less damage to the cell junctions from application of the test solution. […]
Test: Each insert is rinsed with Hanks Balanced Salt Solution (HBSS) 3×1 ml using a 10 ml syringe without needle. […] After incubation at room temperature for 30 minutes, the inserts are sequentially removed from the wells, and the amount of Na-fluorescein in each of the wells is measured in a CytoFluor 2300, using 540 nm excitation and 590 nm emission. […] It has been determined that the assay can measure the effect of 50 μg/ml SDS, and the effect on the permeability of the monolayer is linearly proportional to the concentrations of SDS from 50-250 μg/ml. Fluorescence units (arbitrary) of each test solution is plotted against test solutions.
Interpretation of results: The results are expressed as % of SDS response, and comparisons with the HBSS response. […]

Turning to `CCCCCCCCCCCCOS(=O)(=O)[O-].[Na+]` [SDS, sodium dodecyl sulfate], the “RESPONSE (percentage of SDS response)” value turned out to be 100%.
